What was measured:
[1] = target: T1, rat adrenergic α1A receptor (Rattus norvegicus, UniProt P43140); test: Adrenergic α1A radioligand binding ([3H]Prazosin); settings: 0.1 μM compound; read-out: Percentage inhibition of ligand binding, Adrenergic α1A
T1 construct: rat adrenergic α1A receptor obtained from Wistar Rat submaxillary glands; from tissue; host or cells: Wistar rat submaxillary glands
T1 sequence (P43140 1-466): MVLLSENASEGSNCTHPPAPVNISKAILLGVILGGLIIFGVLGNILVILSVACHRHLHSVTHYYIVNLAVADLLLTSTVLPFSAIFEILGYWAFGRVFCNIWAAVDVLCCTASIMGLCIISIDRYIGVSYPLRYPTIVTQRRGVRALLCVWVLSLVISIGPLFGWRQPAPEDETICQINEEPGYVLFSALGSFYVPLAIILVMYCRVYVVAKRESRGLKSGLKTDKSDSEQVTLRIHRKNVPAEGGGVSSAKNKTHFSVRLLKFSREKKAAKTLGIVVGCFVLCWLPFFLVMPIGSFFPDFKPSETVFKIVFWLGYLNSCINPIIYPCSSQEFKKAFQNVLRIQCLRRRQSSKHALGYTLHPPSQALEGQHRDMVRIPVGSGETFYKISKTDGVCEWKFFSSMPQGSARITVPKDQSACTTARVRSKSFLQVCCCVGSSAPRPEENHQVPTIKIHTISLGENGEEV
Experimental: To evaluate in radioligand binding assays the activity of compounds of the invention, rat adrenergic α1A receptor obtained from Wistar Rat submaxillary glands (Michel, A. et al, Br. J. Pharmacol. 98:883, 1989) in a modified Tris-HCl buffer (50 mM Tris-HCl buffer, pH 7.4, 0.5 mM EDTA) was used. Compounds of the invention were incubated with 0.25 nM [^3H]Prazosin for 60 min at 25° C. Non-specific binding was estimated in the presence of 10 μM phentolamine. Receptor proteins were filtered and washed, the filters were then counted to determine [^3H]Prazosin specifically bound. Compounds of the invention were screened at 1 μM or lower, using 1% DMSO as vehicle. Biochemical assay results are presented as the percent inhibition of specific binding in Table 3.

[2] = target: T2, human recombinant adrenergic α1D receptor (Homo sapiens, UniProt P25100); test: Adrenergic α1D radioligand binding ([3H]Prazosin); settings: 0.1 μM compound; read-out: Percentage inhibition of ligand binding, Adrenergic α1D
T2 construct: expressed in transfected cells; host or cells: HEK-293
T2 sequence (P25100 1-572): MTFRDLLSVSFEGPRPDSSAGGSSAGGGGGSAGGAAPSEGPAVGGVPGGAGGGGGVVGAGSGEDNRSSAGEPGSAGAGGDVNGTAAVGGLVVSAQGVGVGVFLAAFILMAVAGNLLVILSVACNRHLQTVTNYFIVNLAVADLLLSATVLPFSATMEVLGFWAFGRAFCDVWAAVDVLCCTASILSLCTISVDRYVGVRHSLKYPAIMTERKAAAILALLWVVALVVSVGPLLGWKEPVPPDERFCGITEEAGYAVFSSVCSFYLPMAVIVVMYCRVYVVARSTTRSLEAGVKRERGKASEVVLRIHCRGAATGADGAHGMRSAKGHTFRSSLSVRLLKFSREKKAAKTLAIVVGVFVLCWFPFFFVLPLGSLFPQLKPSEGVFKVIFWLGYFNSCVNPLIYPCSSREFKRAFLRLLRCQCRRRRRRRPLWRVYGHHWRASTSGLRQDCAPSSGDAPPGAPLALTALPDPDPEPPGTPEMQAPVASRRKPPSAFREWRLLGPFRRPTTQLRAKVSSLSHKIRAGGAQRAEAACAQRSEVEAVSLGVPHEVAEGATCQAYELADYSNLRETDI
Experimental: To evaluate in radioligand binding assays the activity of compounds of the invention, human recombinant adrenergic α1D receptor expressed in human embryonic kidney (HEK-293) cells (Kenny, B. et al, Br. J. Pharmacol. 115(6):981, 1995) in a 50 mM Tris-HCl buffer, pH 7.4, was used. Compounds of invention were incubated with 0.6 nM [^3H]Prazosin for 60 min at 25° C. Non-specific binding was estimated in the presence of 10 μM phentolamine. Receptor proteins were filtered and washed, the filters were then counted to determine [^3H]Prazosin specifically bound. Compounds were screened at 1 μM or lower, using 1% DMSO as vehicle. Biochemical assay results are presented as the percent inhibition of specific binding in Table 3.

[3] = target: T3, human recombinant serotonin (5-Hydroxytryptamine) 5-HT7 receptor (Homo sapiens, UniProt P34969); test: Serotonin 5-HT7 radioligand binding ([3H]LSD); settings: 0.1 μM compound; read-out: Percentage inhibition of ligand binding, Serotonin 5-HT7
T3 construct: expressed in transfected cells; host or cells: CHO
T3 sequence (P34969 whole entry): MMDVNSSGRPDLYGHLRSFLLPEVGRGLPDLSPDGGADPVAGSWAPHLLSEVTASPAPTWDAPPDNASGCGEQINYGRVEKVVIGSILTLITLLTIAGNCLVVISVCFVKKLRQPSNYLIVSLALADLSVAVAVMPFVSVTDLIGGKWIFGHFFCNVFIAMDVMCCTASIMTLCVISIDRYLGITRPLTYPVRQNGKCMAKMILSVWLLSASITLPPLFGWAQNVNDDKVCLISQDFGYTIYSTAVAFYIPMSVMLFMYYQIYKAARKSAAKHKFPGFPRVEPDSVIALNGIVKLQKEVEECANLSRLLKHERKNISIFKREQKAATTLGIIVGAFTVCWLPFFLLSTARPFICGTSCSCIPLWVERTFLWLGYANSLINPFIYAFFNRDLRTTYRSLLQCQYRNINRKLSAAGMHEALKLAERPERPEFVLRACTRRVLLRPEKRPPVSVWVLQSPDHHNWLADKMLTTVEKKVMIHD
Experimental: To evaluate in radioligand binding assays the activity of compounds of the invention, human recombinant serotonin (5-Hydroxytryptamine) 5-HT7 receptor expressed in Chinese hamster ovary (CHO) cells (Roth, B. et al, J. Pharmacol. Exp. Ther. 268:1403, 1994; Shen, Y. et al, J. Biol. Chem. 268:18200, 1993) in a modified Tris-HCl buffer (50 mM Tris-HCl, pH 7.4, 10 mM MgCl2, 0.5 mM EDTA) was used. Compounds of invention were incubated with 5.5 nM [^3H] Lysergic acid diethylamide (LSD) for 2 h at 25° C. Non-specific binding was estimated in the presence of 10 μM Serotonin (5-HT). Receptor proteins were filtered and washed, the filters were then counted to determine [^3H]LSD specifically bound. Compounds were screened at 1 μM or lower, using 1% DMSO as vehicle. Biochemical assay results are presented as the percent inhibition of specific binding in Table 5.

[4] = target: T4, human recombinant dopamine D2L receptor (Homo sapiens, UniProt P14416); test: Dopamine D2L radioligand binding ([3H]Spiperone); settings: 1 μM compound; read-out: Percentage inhibition of ligand binding, Dopamine D2L
T4 construct: expressed in transfected cells; host or cells: CHO
T4 sequence (P14416 whole entry): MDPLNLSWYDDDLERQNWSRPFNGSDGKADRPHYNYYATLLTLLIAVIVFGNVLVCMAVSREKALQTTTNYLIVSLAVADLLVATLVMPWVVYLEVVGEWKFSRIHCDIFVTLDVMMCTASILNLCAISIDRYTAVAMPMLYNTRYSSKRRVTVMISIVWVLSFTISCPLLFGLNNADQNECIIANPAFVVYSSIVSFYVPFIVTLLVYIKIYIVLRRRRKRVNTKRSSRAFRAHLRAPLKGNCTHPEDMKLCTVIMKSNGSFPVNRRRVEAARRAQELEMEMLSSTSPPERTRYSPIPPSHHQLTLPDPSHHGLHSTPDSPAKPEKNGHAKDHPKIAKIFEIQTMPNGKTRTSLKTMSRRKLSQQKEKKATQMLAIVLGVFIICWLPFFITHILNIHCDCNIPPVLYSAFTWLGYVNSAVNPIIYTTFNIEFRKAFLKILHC
Experimental: To evaluate in radioligand binding assays the activity of compounds of the invention, human recombinant dopamine D2L receptor expressed in Chinese hamster ovary (CHO) cells (Grandy, D. et al, Proc. Natl. Acad. Sci. USA. 86:9762, 1989; Hayes, G. et al, Mol. Endocrinol. 6:920, 1992) in a modified Tris-HCl buffer (50 mM Tris-HCl, pH 7.4, 1.4 mM Ascorbic Acid, 0.001% BSA, 150 mM NaCl) was used. Compounds of the invention were incubated with 0.16 nM [^3H]Spiperone for 120 min at 25° C. Non-specific binding was estimated in the presence of 10 μM Haloperidol. Receptor proteins were filtered and washed, the filters were then counted to determine [^3H]Spiperone specifically bound. Compounds were screened at 1 μM or lower, using 1% DMSO as vehicle. Biochemical assay results are presented as the percent inhibition of specific binding in Table 4.

Row | Compound | inhibition at 0.1 µM [1] [%] | inhibition at 0.1 µM [2] [%] | inhibition at 0.1 µM [3] [%] | inhibition at 1 µM [4] [%]
1 | Cc1ccc2c(c1)c1c(n2/C=C2/CCCc3ccccc32)CCN(C)C1 [i-2] | 51 | 86 | 97 | 47
2 | Cc1ccc2c(c1)c1c(n2/C=C2\CCCc3ccccc32)CCN(C)C1 [i-3] | 18 | 43 | 96 | 49

Source: patent publication US9035056B2, “Pyrido[4,3-b]indole and pyrido[3,4-b]indole derivatives and methods of use” (Medivation Technologies, Inc., priority 2011, dated 2015)
